# Experimental data from patent publication US8809352B2, “Sulfonamides as inhibitors of Bcl-2 family proteins for the treatments of cancer” (Novartis AG, priority 2009, dated 2014).
# Target: BCL2 (Homo sapiens, UniProt P10415)
# Assay: Biacore SPR solution inhibition assay of BCL-2 binding to peptide derivatized sensor surfaces
# Details: SPR competition; 56 nM BCL2 pre-equilibrated with compound one hour; biotinylated BAK, BAD and NOXA peptide surfaces; 25° C.
# Excerpt: The present method includes utility of a Surface plasmon resonance (SPR)-based biosensor (Biacore™ GE Healthcare, Uppsala, Sweden) to characterize BCL-2 inhibitors.
# Biacore™ utilizes the phenomenon of surface plasmon resonance (SPR) to detect and measure binding interactions. In a typical Biacore experiment, one of the interacting molecules (ligand) is immobilized on a flexible dextran matrix while the interacting partner (analyte) is allowed to flow across that surface. A binding interaction results in an increase in mass on the sensor surface and a corresponding direct change in the refractive index of the medium in the vicinity of the sensor surface. Changes in refractive index or signal are recorded in resonance units (R.U.) Signal changes due to association and dissociation of complexes are monitored in a non-invasive manner, continuously and in real-time, the results of which are reported in the form of a sensorgram. The SPR assay is configured to examine solution inhibition of BCL-2 binding to peptide derivatized sensor surfaces to generate […] values as a measure of inhibitor potency.
# Biacore™ A100 (GE Healthcare, Uppsala, Sweden) was used to conduct all experiments reported herein. Sensor surface preparation and all interaction analyses experiments were performed at 25° C. Reagents were purchased from GE Healthcare. Running buffer containing 10 mM Hepes, pH7.4, 150 mM sodium chloride, 1.25 mM Dithiothreitol, 3% Dimethyl sulfoxide and 0.05% polysorbate 20 were utilized throughout all analyses.
# Biotinylated BAK, BAD and NOXA peptides were diluted to 10 nM in running buffer and captured onto a sensor surface pre-derivatized with streptavidin (sensor chip SA) to peptide surface densities in the range 50-100 R.U. Peptide captured surfaces were blocked with 500 μM PEO2-Biotin.
# Interaction analyses were performed by first equilibrating each sample within a 6 point three fold compound dilution series in the range 16 μM to 0.004 nM with 56 nM BCL2 for one hour during instrument start-up procedures. Protein compound mixtures were then injected over each peptide surface in parallel for 60 seconds at a flow-rate of 30 μL/min. 56 nM BCL2 control samples were also prepared and run at regular intervals during the assay. Surface regeneration was performed at the end of each analysis cycle by two 30 second injections of 10 mM Glycine, pH 2.5, 1M Sodium Chloride, 0.05% polysorbate 20. Samples and control compound samples were run in duplicate and controls are also run at regular intervals during the assay to monitor surface and assay performance.
# Data analyses are carried out using Biacore™ A100 evaluation software v1.1 to validate assay quality. Binding level report points were used relative to BCL2 control samples to calculate % inhibition values for each compound protein mixture.
# Sequence of BCL2 (P10415 whole entry): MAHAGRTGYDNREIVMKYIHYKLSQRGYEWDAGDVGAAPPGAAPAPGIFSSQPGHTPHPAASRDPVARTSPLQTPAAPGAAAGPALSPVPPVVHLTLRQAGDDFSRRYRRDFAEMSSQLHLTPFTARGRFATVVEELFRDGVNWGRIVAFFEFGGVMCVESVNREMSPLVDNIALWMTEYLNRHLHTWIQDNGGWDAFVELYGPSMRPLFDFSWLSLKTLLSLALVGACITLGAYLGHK
row,IC50,SMILES
1,174 nM,"CN(C)CC[C@H](CSc1ccccc1)Nc1ccc(S(=O)(=O)Nc2ncnc3c2CCN(C2CCC(=Cc4ccccc4-c4ccc(Cl)cc4)CC2)C3)cc1S(=O)(=O)C(F)(F)F (stereo partly drawn) [Example 62, N-(7-(4-((4′-chlorobiphenyl-2-yl)methylene)cyclohexyl)-5,6,7,8-tetrahydropyrido[3,4-d]pyrimidin-4-yl)-4-((R)-4-(dimethylamino)-1-(phenylthio)butan-2-ylamino)-3-(trifluoromethylsulfonyl)benzenesulfonamide]"
2,506 nM,"CN(C)CC[C@H](CSc1ccccc1)Nc1ccc(S(=O)(=O)Nc2ncnc3c2CCN(C2CCN(Cc4ccccc4Br)CC2)C3)cc1S(=O)(=O)C(F)(F)F [Example 7, (R)-N-(7-(1-(2-bromobenzyl)piperidin-4-yl)-5,6,7,8-tetrahydropyrido[3,4-d]pyrimidin-4-yl)-4-(4-(dimethylamino)-1-(phenylthio)butan-2-ylamino)-3-(trifluoromethylsulfonyl)benzenesulfonamide]"
3,109 nM,"[2H]C1(N2CCc3c(ncnc3NS(=O)(=O)c3ccc(N[C@H](CCN4CCCC4)CSc4ccccc4)c(S(=O)(=O)C(F)(F)F)c3)C2)CCN(Cc2cc(F)ccc2-c2ccc(Cl)cc2)CC1 [Example 82, (R)-N-(7-(1-((4′-chloro-4 fluorobiphenyl-2-yl)methyl)-4-dueteropiperidin-4-yl)-5,6,7,8-tetrahydropyrido[3,4-d]pyrimidin-4-yl)-4-(1-(phenylthio)-4-(pyrrolidin-1-yl)butan-2-ylamino)-3-(trifluoromethylsulfonyl) benzene sulfonamide]"
4,36 nM,"CN(C)CC[C@H](CSc1ccccc1)Nc1ccc(S(=O)(=O)Nc2ncnc3c2CCN(C2CCN(Cc4ccccc4-c4ccc(Cl)cc4)CC2F)C3)cc1S(=O)(=O)C(F)(F)F (stereo partly drawn) [Example 66, N-(7-(1-((4′-chlorobiphenyl-2-yl)methyl)-3-fluoropiperidin-4-yl)-5,6,7,8tetrahydropyrido[3,4-d]pyrimidin-4-yl)-4-((R)-4-(dimethylamino)-1-(phenylthio)butan-2-ylamino)-3-(trifluoromethylsulfonyl)benzenesulfonamide]"
5,35 nM,"CN1CCN(CC[C@H](CSc2ccccc2F)Nc2ccc(S(=O)(=O)Nc3ncnc4c3CCN(C3CCN(CC5=C(c6ccc(Cl)cc6)CC(C)(C)CC5)CC3)C4)cc2S(=O)(=O)C(F)(F)F)CC1 [Example 55, (R)-N-(7-(1-((2-(4-chlorophenyl)-4,4-dimethylcyclohex-1-enyl)methyl)piperidin-4-yl)-5,6,7,8-tetrahydropyrido[3,4-d]pyrimidin-4-yl)-4-(1-(2-fluorophenylthio)-4-(4-methylpiperazin-1-yl)butan-2-ylamino)-3-(trifluoromethylsulfonyl)benzenesulfonamide]"
6,66 nM,O=[N+]([O-])c1cc(S(=O)(=O)Nc2ncnc3c2CCN(C2CCN(Cc4ccccc4-c4ccc(Cl)cc4)CC2)C3)ccc1N[C@H](CCN1CCOCC1)CSc1ccccc1 [Example 58]
7,25 nM,"CN(C)CC[C@H](CSc1ccccc1)Nc1ccc(S(=O)(=O)Nc2ncnc3c2CCN(C2CCN(Cc4ccccc4-c4ccc(F)cc4)CC2)C3)cc1S(=O)(=O)C(F)(F)F [Example 5, (R)-4-(4-(dimethylamino)-1-(phenylthio)butan-2-ylamino)-N-(7-(1-((4′-fluorobiphenyl-2-yl)methyl)piperidin-4-yl)-5,6,7,8-tetrahydropyrido[3,4-d]pyrimidin-4-yl)-3-(trifluoromethylsulfonyl)benzenesulfonamide]"
8,42 nM,"CN(C)CC[C@H](CSc1ccccc1)Nc1ccc(S(=O)(=O)Nc2nc(C(F)(F)F)nc3c2CCN(C2CCN(Cc4ccccc4-c4ccc(Cl)cc4)CC2)C3)cc1S(=O)(=O)C(F)(F)F [Example 67, (R)-N-(7-(1((4′-chlorobiphenyl-2-yl)methyl)piperidin-4-yl)-2-(trifluoromethyl)-5,6,7,8-tetrahydropyrido[3,4-d]pyrimidin-4-yl)-4-(4-(dimethylamino)-1-(phenylthio)butan-2-ylamino)-3-(trifluoramethylsulfonyl)benzenesulfonamide]"
9,34 nM,"COc1ccc(-c2ccc(Cl)cc2)c(CN2CCC(N3CCc4c(ncnc4NS(=O)(=O)c4ccc(N[C@H](CCN(C)C)CSc5ccccc5)c(S(=O)(=O)C(F)(F)F)c4)C3)CC2)c1 [Example 36, (R)-N-(7-(1-((4′-chloro-4-methoxybiphenyl-2-yl)methyl)piperidin-4-yl)-5,6,7,8-tetrahydropyrido[3,4-d]pyrimidin-4-yl)-4-(4-(dimethylamino)-1-(phenylthio)butan-2-ylamino)-3-(trifluoromethylsulfonyl)benzenesulfonamide]"
10,24 nM,"CN(C)CC[C@H](CSc1ccccc1)Nc1ccc(S(=O)(=O)Nc2nnc3n2CCN(C2CCN(Cc4ccccc4-c4ccc(Cl)cc4)CC2)CC3)cc1S(=O)(=O)C(F)(F)F [Example 93, N-{6-[1-(4′-Chloro-biphenyl-2-ylmethyl)-piperidin-4-yl]-5,6,7,8-tetrahydro-4H-1,2,3a,6-tetraaza-azulen-3-yl}-4-((R)-3-dimethylamino-1-phenyl-sulfanylmethyl-propylamino)-3-trifluoromethanesulfonyl-benzenesulfonamide]"
11,99 nM,"CN(C)CC[C@H](CSc1cccc(Cl)c1)Nc1ccc(S(=O)(=O)Nc2ncnc3c2CCN(C2CCN(Cc4ccccc4-c4ccc(F)cc4)CC2)C3)cc1S(=O)(=O)C(F)(F)F [Example 57, N-{7-[1-(4′-Fluoro-biphenyl-2-ylmethyl)-piperidin-4-yl]-5,6,7,8-tetrahydro-pyrido[3,4-d]pyrimidin-4-yl}-4-[(R)-1-(3-chloro-phenylsulfanylmethyl)-3-dimethylamino-propylamino]-3-trifluoromethanesulfonyl-benzenesulfonamide]"
12,365 nM,"C[C@H](CSc1ccccc1)Nc1ccc(S(=O)(=O)Nc2ncnc3c2CCN(C2CCN(CC4=C(c5ccc(Cl)cc5)CC(C)(C)CC4)CC2)C3)cc1S(=O)(=O)C(F)(F)F [Example 45, N-(7-(1-((2-(4-chlorophenyl)-4,4-dimethylcyclohex-1-enyl)methyl)piperidin-4-yl)-5,6,7,8-tetrahydropyrido[3,4-d]pyrimidin-4-yl)-4-(1-(phenylthio)propan-2-ylamino)-3-(trifluoromethylsulfonyl)benzenesulfonamide]"
13,1900 nM,"O=S(=O)(Nc1nnc2n1CCN(C1CCCN(Cc3ccccc3-c3ccc(Cl)cc3)CC1)C2)c1ccc(N[C@H](CCN2CCOCC2)CSc2ccccc2)c(S(=O)(=O)C(F)(F)F)c1 (stereo partly drawn) [Example 95, N-{7-[1-(4′-Chloro-biphenyl-2-ylmethyl)-azepan-4-yl]-5,6,7,8-tetrahydro-[1,2,4]triazolo[4,3-a]pyrazin-3-yl}-4-((R)-3-morpholin-4-yl-1-phenylsulfanylmethyl-propylamino)-3-trifluoromethanesulfonyl-benzenesulfonamide]"
14,32 nM,"[2H]C1(N2CCc3c(ncnc3NS(=O)(=O)c3ccc(N[C@H](CCN4CCN(C)CC4)CSc4ccccc4F)c(S(=O)(=O)C(F)(F)F)c3)C2)CCN(Cc2cc(F)ccc2-c2ccc(Cl)cc2)CC1 [Example 87, (R)-N-(7-(1-((4′-chloro-4-fluorobiphenyl-2-yl)methyl)-4-deuteropiperidin-4-yl)-5,6,7,8-tetrahydropyrido[3,4-d]pyrimidin-4-yl)-4-(1-(2-fluorophenylthio)-4-(4-methylpiperazin-1-yl)butan-2-ylamino)-3-(trifluoromethylsulfonyl)benzenesulfonamide]"
15,1310 nM,O=S(=O)(Nc1ncnc2c1CCN(C1CCN(Cc3ccccc3-c3ccc(Cl)cc3)CC1)C2)c1ccc(NCCSc2ccccc2)c(S(=O)(=O)C(F)(F)F)c1 [Example 52]
16,235 nM,"C[C@H](CSc1ccccc1)Nc1ccc(S(=O)(=O)Nc2ncnc3c2CCN(C2CCN(Cc4ccccc4-c4ccc(Cl)cc4)CC2)C3)cc1S(=O)(=O)C(F)(F)F [Example 44, N-(7-(1((4′-chlorobiphenyl-2-yl)-methyl)piperidin-4-yl)-5,6,7,8-tetrahydropyrido[3,4-d]pyrimidin-4-yl)-4-(1-(phenylthio)propan-2-ylamino)-3-(trifluoromethylsulfonyl)benzenesulfonamide]"
17,97 nM,"CC(c1ccccc1-c1ccc(Cl)cc1)N1CCC(N2CCc3c(ncnc3NS(=O)(=O)c3ccc(N[C@H](CCN4CCOCC4)CSc4ccccc4)c(S(=O)(=O)C(F)(F)F)c3)C2)CC1 (stereo partly drawn) [Example 42, N-(7-(1-(1-(4′chlorobiphenyl-2-yl)ethyl)piperidin-4-yl)-5,6,7,8-tetrahydropyrido[3,4-d]pyrimidin-4-yl)-4-((R)-4-morpholino-1-(phenylthio)butan-2-ylamino)-3-(trifluoromethylsulfonyl)benzenesulfonamide]"
